The subject of data set [1] is Acute Liver Injury Induced by Carbon Tetrachloride. Kind of data set: Protective effect on acute liver injury induced by carbon tetrachloride. Format: in vivo, mice (ddY mice). As to conditions: for Liver Damage Index: 50mg/kg orally in olive oil 6 hours before carbon tetrachloride (0.05ml/kg orally), visual score 0: normal, 2: slightly, 4: distinctly, 6: remarkably injured, n=5, CCl4 alone 6.0; for inhibition in vivo at 50 mg/kg: Mus musculus, po, 50mg/kg orally 6 hours before carbon tetrachloride (0.05ml/kg orally), CCl4 alone 0, Normal 100. As to the method:
A test compound was dissolved or suspended in olive oil and administered orally at a dose of 50mg/kg to mice (ddY mice, ? , 23 ± 2g, n=5). After 6 hours, carbon tetrachloride (0.05ml/kg) was administered orally. 24 Hours after the administration of carbon tetrachloride, BSP (sodium sulfobromophthalene; 75mg/kg) was administered intravenously. Thirty minutes later, the cardiac blood was collected, and GPT (glutamic-pyruvic transaminase) activity and the retention rate of BSP in the plasma were measured. Further, the liver injury immediately after the collection of the blood was visually observed and evaluated by the following score for liver damage index. 0: normal 2: Slightly injured 4: distinctly injured 6: remarkably injured

Data set [2] concerns mice (ddY mice). In words: Acute toxicity test. It is filed as in vivo. As to conditions: oral in olive oil, mortality one week after the administration, n=5. The protocol:
A test compound was dissolved or suspended in olive oil and administered orally to mice (ddY mice, ? , 23±2g, n=5). The acute toxicity value (LD₅₀) was determined from the mortality one week after the administration.

[3] abbreviates: 24.5 h, retention rate of BSP in plasma 30 minutes after BSP 75mg/kg i.v., read-out: % Prophylaxis BSP.
Where [4] appears, read: plasma GPT about 24.5 hours after CCl4, read-out: % Prophylaxis p-GPT.

SMILES strings stand for the structures. Read-outs that look alike come from different tables or passages of the source.

Turning to `CC(=O)C(C(=O)c1cc2ccccc2[nH]1)=C1SC=CS1` [Compound 29, 2-(1,3-dithiol-2-ylidene)-1-(2-indolyl)-1,3-butanedione], the “Liver Damage Index” value in data set [1] is 0.8. Moreover, the inhibition in vivo at 50 mg/kg in data set [1] (setting [3]) came to 104%; in data set [1] (setting [4]), 100%.

On to `CC(=O)C(C(=O)c1ccco1)=C1SC=CS1` [Compound 23, 2-(1,3-dithiol-2-ylidene)-1-(2-furyl)-1,3-butanedione], for which the “Liver Damage Index” value in data set [1] was determined as 1.0. The figures for the inhibition in vivo at 50 mg/kg in data set [1] (setting [3]) and in data set [1] (setting [4]) were 110% and 94%, respectively.

Take `COc1ccc(C(=O)C(C(C)=O)=C2SC=CS2)cc1` [Compound 17, 2-(1,3-dithiol-2-ylidene)-1-(4-methoxyphenyl)-1,3-butanedione]: the “acute toxicity value (LD50)” value in data set [2] is listed as “at least 2 g”. Besides, in data set [1], the “Liver Damage Index” value was 0. Besides, the inhibition in vivo at 50 mg/kg in data set [1] (setting [3]) and in data set [1] (setting [4]) was 100% each time.

Regarding `CC(=O)C(C(=O)c1ccc2ccccc2n1)=C1SC=CS1` [Compound 30, 2-(1,3-dithiol-2-ylidene)-1-(2-quinolyl)-1,3-butanedione], the “Liver Damage Index” value in data set [1] is 2.0. For the same molecule, the inhibition in vivo at 50 mg/kg is 105% in data set [1] (setting [3]) and 98% in data set [1] (setting [4]).

Consider `CC(=O)C(C(=O)c1ccc2ccccc2c1)=C1SC=CS1` [Compound 28, 2-(1,3-dithiol-2-ylidene)-1-(2-naphthyl)-1,3-butanedione], for which the “acute toxicity value (LD50)” value in data set [2] is recorded as “at least 2 g”. In data set [1], the “Liver Damage Index” value turned out to be 0. Besides, the inhibition in vivo at 50 mg/kg in data set [1] (setting [3]) came out at 100%; in data set [1] (setting [4]) it was 99%.

`CC(=O)C(C(=O)c1cccs1)=C1SC=CS1` [Compound 24, 2-(1,3-dithiol-2-ylidene)-1-(2-thienyl)-1,3-butanedione]: the “Liver Damage Index” value in data set [1] was 0. Moreover, the inhibition in vivo at 50 mg/kg in data set [1] (setting [3]) worked out at 102%; in data set [1] (setting [4]), 100%.

For `CC(=O)C(C(=O)c1ccc(O)cc1)=C1SC=CS1` [Compound 45, 2-(1,3-dithiol-2-ylidene)-1-(4-hydroxyphenyl)-1,3-butanedione], the “acute toxicity value (LD50)” value in data set [2] is “at least 2 g”. Besides, the “Liver Damage Index” value in data set [1] is on record as 0.2. The values for the inhibition in vivo at 50 mg/kg in data set [1] (setting [3]) and in data set [1] (setting [4]) were 111% and 100%, respectively.

In the case of `CC(=O)C(C(=O)C=Cc1ccccc1)=C1SC=CS1` [Compound 33, 4-(1,3-dithiol-2-ylidene)-1-phenyl-1-hexene-3,5-dione], in data set [1], the “Liver Damage Index” value is on record as 4.2. Also, the inhibition in vivo at 50 mg/kg in data set [1] (setting [3]) is 86%; in data set [1] (setting [4]), 77%.

For the molecule `CC(=O)C(C(=O)c1cnccn1)=C1SC=CS1` [Compound 26, 2-(1,3-dithiol-2-ylidene)-1-pyrazinyl-1,3-butanedione], the “Liver Damage Index” value in data set [1] is 0.4. For the same molecule, the figures for the inhibition in vivo at 50 mg/kg in data set [1] (setting [3]) and in data set [1] (setting [4]) were 99% and 96%, respectively.

In the case of `CC(=O)C(C(=O)c1ccc[nH]1)=C1SC=CS1` [Compound 25, 2-(1,3-dithiol-2-ylidene)-1-(2-pyrrolyl)-1,3-butanedione], in data set [1], the “Liver Damage Index” value is on record as 2.2. For the same molecule, the inhibition in vivo at 50 mg/kg came out at 88% in data set [1] (setting [3]) and 76% in data set [1] (setting [4]).

As for `CC(C)(C)C(=O)C(C(=O)c1ccccc1)=C1SC=CS1` [Compound 9, 2-(1,3-dithiol-2-ylidene)-4,4-dimethyl-1-phenyl-1,3-pentanedione], in data set [1], the “Liver Damage Index” value is 0.4. Moreover, the figures for the inhibition in vivo at 50 mg/kg in data set [1] (setting [3]) and in data set [1] (setting [4]) were 103% and 100%, respectively.

For the molecule `O=C(C=Cc1ccccc1)C(C(=O)c1ccccc1)=C1SC=CS1` [Compound 38, 4-(1,3-dithiol-2-ylidene)-1,5-diphenyl-1-pentene-3,5-dione], the “Liver Damage Index” value in data set [1] worked out at 3.2. Moreover, the values for the inhibition in vivo at 50 mg/kg in data set [1] (setting [3]) and in data set [1] (setting [4]) were 96% and 66%, respectively.

For the molecule `COc1ccccc1C(=O)C(C(C)=O)=C1SC=CS1` [Compound 16, 2-(1,3-dithiol-2-ylidene)-1-(2-methoxyphenyl)-1,3-butanedione], the “Liver Damage Index” value in data set [1] is 0.6. The inhibition in vivo at 50 mg/kg in data set [1] (setting [3]) was 95%; in data set [1] (setting [4]) it was 99%.

Consider `CC(=O)C(C(=O)Cc1ccccc1)=C1SC=CS1` [Compound 32, 3-(1,3-dithiol-2-ylidene)-1-phenyl-2,4-pentanedione], for which the “Liver Damage Index” value in data set [1] stood at 0.4. Moreover, the inhibition in vivo at 50 mg/kg in data set [1] (setting [3]) is 124%; in data set [1] (setting [4]), 95%.

Take `O=C(C(C(=O)c1ccc(Cl)cc1)=C1SC=CS1)c1ccc(Cl)cc1` [Compound 35, 2-(1,3-dithiol-2-ylidene)-1,3-di(4-chlorophenyl)-1,3-propanedione]: in data set [1], the “Liver Damage Index” value was found to be 0. Besides, the results for the inhibition in vivo at 50 mg/kg in data set [1] (setting [3]) and in data set [1] (setting [4]) were 114% and 100%, respectively.

In the case of `CC(=O)C(C(=O)c1ccncc1)=C1SC=CS1` [Compound 22, 2-(1,3-dithiol-2-ylidene)-1-(4-pyridyl)-1,3-butanedione], the “Liver Damage Index” value in data set [1] is on record as 0.2. Further, the results for the inhibition in vivo at 50 mg/kg in data set [1] (setting [3]) and in data set [1] (setting [4]) were 120% and 100%, respectively.

As for `CC(=O)C(C(=O)c1ccc(Br)cc1)=C1SC=CS1` [Compound 15, 2-(1,3-dithiol-2-ylidene)-1-(4-bromophenyl)-1,3-butanedione], in data set [1], the “Liver Damage Index” value was determined as 3.2. The inhibition in vivo at 50 mg/kg worked out at 105% in data set [1] (setting [3]) and 100% in data set [1] (setting [4]).

Turning to `CC(=O)C(C(=O)c1cccnc1)=C1SC=CS1` [Compound 21, 2-(1,3-dithiol-2-ylidene)-1-(3-pyridyl)-1,3-butanedione], the “Liver Damage Index” value in data set [1] came out at 0.8. Besides, the results for the inhibition in vivo at 50 mg/kg in data set [1] (setting [3]) and in data set [1] (setting [4]) were 100% and 98%, respectively.

As for `O=C(C(C(=O)c1ccccc1)=C1SC=CS1)c1ccccc1` [Compound 34, 2-(1,3-dithiol-2-ylidene)-1,3-diphenyl-1,3-propanedione], the “Liver Damage Index” value in data set [1] is given as 0.8. For the same molecule, the results for the inhibition in vivo at 50 mg/kg in data set [1] (setting [3]) and in data set [1] (setting [4]) were 112% and 100%, respectively.

For the molecule `CCCC(=O)C(C(=O)c1ccccc1)=C1SC=CS1` [Compound 7, 2-(1,3-dithiol-2-ylidene)-1-phenyl-1,3-hexanedione], the “acute toxicity value (LD50)” value in data set [2] is “at least 2 g”. Moreover, the “Liver Damage Index” value in data set [1] is given as 1.6. The inhibition in vivo at 50 mg/kg worked out at 108% in data set [1] (setting [3]) and 100% in data set [1] (setting [4]).

In the case of `CC(=O)C(C(=O)c1ccc(Cl)cc1)=C1SC=CS1` [Compound 14, 2-(1,3-dithiol-2-ylidene)-1-(4-chlorophenyl)-1,3-butanedione], the “Liver Damage Index” value in data set [1] came out at 0.4. In addition, the inhibition in vivo at 50 mg/kg was 113% in data set [1] (setting [3]) and 100% in data set [1] (setting [4]).

Regarding `CC=CC(=O)C(C(=O)c1ccccc1)=C1SC=CS1` [Compound 11, 2-(1,3-dithiol-2-ylidene)-1-phenyl-4-hexene-1,3-dione], the “Liver Damage Index” value in data set [1] is reported as 0.8. The figures for the inhibition in vivo at 50 mg/kg in data set [1] (setting [3]) and in data set [1] (setting [4]) were 105% and 100%, respectively.

Turning to `O=C(C(C(=O)C(F)(F)F)=C1SC=CS1)c1ccccc1` [Compound 31, 2-(1,3-dithiol-2-ylidene)-1-phenyl-4,4,4-trifluoro-1,3-butanedione], the “Liver Damage Index” value in data set [1] was 0.4. For the same molecule, the inhibition in vivo at 50 mg/kg stood at 106% in data set [1] (setting [3]) and 100% in data set [1] (setting [4]).

`CC(=O)C(C(=O)c1ccc([N+](=O)[O-])cc1)=C1SC=CS1` [Compound 19, 2-(1,3-dithiol-2-ylidene)-1-(4-nitrophenyl)-1,3-butanedione]: the “Liver Damage Index” value in data set [1] amounted to 1.6. The inhibition in vivo at 50 mg/kg in data set [1] (setting [3]) and in data set [1] (setting [4]) was 100% throughout.

Consider `CC(=O)C(C(=O)c1ccc(N)cc1)=C1SC=CS1` [Compound 46, 2-(1,3-dithiol-2-ylidene)-1-(4-aminophenyl)-1,3-butanedione], for which, in data set [1], the “Liver Damage Index” value is 0.4. Besides, the inhibition in vivo at 50 mg/kg in data set [1] (setting [3]) was determined as 106%; in data set [1] (setting [4]) it was 100%.

On to `COc1ccc(C(=O)C(C(C)=O)=C2SC=CS2)cc1OC` [Compound 18, 2-(1,3-dithiol-2-ylidene)-1-(3,4-dimethoxyphenyl)-1,3-butanedione], for which the “Liver Damage Index” value in data set [1] stood at 0.4. The inhibition in vivo at 50 mg/kg turned out to be 100% in data set [1] (setting [3]) and 54% in data set [1] (setting [4]).

On to `O=C(Cc1ccccc1)C(C(=O)c1ccccc1)=C1SC=CS1` [Compound 37, 2-(1,3-dithiol-2-ylidene)-1,4-diphenyl-1,3-butanedione], for which, in data set [1], the “Liver Damage Index” value worked out at 1.8. Further, the figures for the inhibition in vivo at 50 mg/kg in data set [1] (setting [3]) and in data set [1] (setting [4]) were 99% and 100%, respectively.

For `COc1ccc(C(=O)C(C(=O)c2ccc(OC)cc2)=C2SC=CS2)cc1` [Compound 36, 2-(1,3-dithiol-2-ylidene)-1,3-di(4-methoxyphenyl)-1,3-propanedione], the “Liver Damage Index” value in data set [1] turned out to be 0. Further, the inhibition in vivo at 50 mg/kg in data set [1] (setting [3]) came to 119%; in data set [1] (setting [4]) it was 100%.

(Values after patent EP0210284B1, “1,3-Dithiol-2-ylidene derivatives” (priority 1985, dated 1987).)
